{"source": "patent US20050239751A1", "about": "“Heterocyclic anti-viral compounds comprising metabolizable moieties and their uses” (Rigel Pharmaceuticals, Inc., priority 2004, published 2005)", "data": [{"test_system": "HCV replicon in 5-2 Luc replicon-comprising cells", "experiment": "HCV replicon assay (luciferase; HEPC_REPLICON-LUC)", "type": "cell-based, Hepatitis C virus", "conditions": "Hepatitis C virus; Tables 3-12; 50% reduction in luciferase emission, 5-2 Luc replicon cells; read-out: Replicon (IC50)", "text": "(§1) In one embodiment, the inhibitory activity of the metabolically active agent of the prodrug can be confirmed in a replicon assay that assesses the ability of a test compound to block or inhibit HCV replication in replicon cells. One example of a suitable replicon assay is the liver cell-line Huh 7-based replicon assay described in Lohmann et al., 1999, Science 285:110-113. A specific example of this replicon assay which utilizes luciferase translation is provided in the Examples Section. In one embodiment of this assay, the amount of test prodrug that yields a 50% reduction in translation as compared to a control cell (IC50) may be determined.\n(§2) The inhibitory activity of certain prodrugs of the invention, which may inhibit HCV translation or replication prior to metablism and/or are metabolized into active agents, was confirmed using an HCV replicon assay. The HCV replicon can include such features as the HCV 5′ untranslated region including the HCV IRES, the HCV 3′ untranslated region, selected HCV genes encoding HCV polypeptides, selectable markers, and a reporter gene such as luciferase, GFP, etc. In the assay, actively dividing 5-2 Luc replicon-comprising cells (obtained from Ralf Bartenschlager; see Lohmann et al., 1999, Science 285:110-113) were seeded at a density of between about 5,000 and 7,500 cells/well onto 96 well plates (about 90 µl of cells per well) and incubated at 37° C. and 5% CO2 for 24 hours. Then, the test prodrug (in a volume of about 10 PI) was added to the wells at various concentrations and the cells were incubated for an additional 24-48 hours before luciferase assay. The media was aspirated from each well and Bright-Glo (Promega, Madison, WI) luciferase assay reagents were added to each well according to the manufacturer's instructions. Briefly, the BrightGlo reagent was diluted 1:1 with PBS and 100 µl of diluted reagent was added to each well. After 5 min of incubation at room temperature, luciferin emission was quantified with a luminometer. In this assay, the amount of test prodrug that yielded a 50% reduction in luciferase emission (IC50) was determined. This IC50 value may represent the antiviral activity of the prodrug itself, the activity of prodrug transformed into its active metabolized form, or a combination of the two.\n(§3) In TABLES 3 through 12, a value of “+” indicates an IC50 of 10 μM or less in the specified assay; a value of “−” indicates an IC50 of greater than 10 μM in the specified assay.", "units": {"IC50": "µM"}, "values": [{"compound": "COc1cccc(Cl)c1-c1cc(-c2cccc(N(Cc3oc(=O)oc3C(C)C)C(=O)C(Cl)Cl)c2)on1", "note": "[Cpd. 37, 2,2-dichloro-N-[3′-[3′-(2′-chloro-6′-methoxyphenyl)-5′-isoxazoyl]phenyl]-N-[(5-isopropyl-1,3-dioxolene-2-one-4-yl)methylene] acetamide]", "IC50": "≤ 10"}, {"compound": "CCOC(=O)[C@H](C)OC(=O)C(Cl)(Cl)C(=O)Nc1cccc(-c2cc(-c3c(Cl)cccc3Cl)no2)c1", "note": "[Cpd. 8, 2′,2′-dichloro-2′-(1S-ethoxycarbonyl-1-methylmethyleneoxycarbonyl)-N-[3-[3-(2,6-dichlorophenyl)-5-isoxazoyl]phenyl] acetamide]", "IC50": "≤ 10"}, {"compound": "CCC(C)OC(=O)C(Cl)(Cl)C(=O)Nc1cccc(-c2cc(-c3c(Cl)cccc3Cl)no2)c1", "note": "(stereo not shown) [Cpd. 12, 2′,2′-dichloro-2′-(sec-butoxycarbonyl)-N-[3-[3-(2,6-dichlorophenyl)-5-isoxazoyl]phenyl] acetamide]", "IC50": "≤ 10"}, {"compound": "CCCCCc1oc(=O)oc1CN(C(=O)C(Cl)Cl)c1ccnc(-c2cc(-c3c(Cl)cccc3Cl)no2)c1", "note": "[Cpd. 43, 2,2-dichloro-N-[2′-[3′-(2′,6′-dichlorophenyl)-5′-isoxazoyl](4pyridyl)]N-[(5-n-pentyl-1,3-dioxolene-2-one4yl)methylene] acetamide]", "IC50": "≤ 10"}, {"compound": "CC(C)OC(=O)C(Cl)(Cl)C(=O)Nc1cccc(-c2cc(-c3c(Cl)cccc3Cl)no2)c1", "note": "[Cpd. 16, 2′,2′-dichloro-2′-(isopropoxycarbonyl)-N-[3-[3-(2,6-dichlorophenyl)-5-isoxazoyl]phenyl] acetamide]", "IC50": "≤ 10"}, {"compound": "O=C(C(Cl)Cl)N(Cc1oc(=O)oc1C1CCCCC1)c1cccc(-c2cc(-c3c(Cl)cccc3Cl)no2)c1", "note": "[Cpd. 39, 2,2-dichloro-N-[3′-[3′-(2′,6′-dichlorophenyl)-5′-isoxazoyl]phenyl]-N-[(5-cyclohexyl-1,3-dioxolene-2-one4-yl)methylene] acetamide]", "IC50": "≤ 10"}, {"compound": "COC(=O)C(Cl)(Cl)C(=O)Nc1cccc(-c2cc(-c3ccccc3C(F)(F)F)no2)c1", "note": "[Cpd. 29, 2′,2′-dichloro-2′-(methoxycarbonyl)-N-[3-[3-(2-trifluoromethylphenyl)-5-isoxazoyl]phenyl] acetamide]", "IC50": "≤ 10"}, {"compound": "CCCc1oc(=O)oc1CN(C(=O)C(Cl)Cl)c1cccc(-c2cc(-c3c(Cl)cccc3Cl)no2)c1", "note": "[Cpd. 38, 2,2-dichloro-N-[3′-[3′-(2′,6′-dichlorophenyl)-5′-isoxazoyl]phenyl]-N-[(5-n-propyl-1,3-dioxolene-2-one-4-yl)methylene] acetamide]", "IC50": "≤ 10"}, {"compound": "O=C(Nc1cccc(-c2cc(-c3c(Cl)cccc3Cl)no2)c1)C(Cl)(Cl)C(=O)N1CCOCC1", "note": "[Cpd. 50]", "IC50": "≤ 10"}, {"compound": "COC(=O)C(Cl)(Cl)C(=O)Nc1cccc(-c2cc(-c3c(Cl)cccc3Cl)no2)c1", "note": "[Cpd. 18]", "IC50": "≤ 10"}, {"compound": "CC(C)(C)OC(=O)C(Cl)(Cl)C(=O)Nc1ccnc(-c2cc(-c3c(Cl)cccc3Cl)no2)c1", "note": "[Cpd. 505]", "IC50": "≤ 10"}]}, {"test_system": "HCV replicon in 5-2 Luc replicon-comprising cells", "experiment": "HCV replicon assay (luciferase; HEPC_REPLICON-LUC)", "type": "cell-based, Hepatitis C virus", "conditions": "Table 15; read-out: Replicon (IC50)", "text": "as §1, §2, §3", "units": {"IC50": "µM"}, "values": [{"compound": "2′,2′-Dichloro-N-[3-[3-(2,6-dichlorophenyl)-5-isoxazolyl]phenyl]-N-[2-(4-fluorobenzoyl)ethyl] Acetamide [100a]", "IC50": "≤ 10"}, {"compound": "2′,2′-Dichloro-N-[3-[3-(2-cyclopropyl-6-trifluoromethylphenyl)-5-isoxazolyl]phenyl]N-[2-(4-fluorobenzoyl)ethyl] Acetamide [Cpd. 114a]", "IC50": "≤ 10"}]}, {"test_system": "HCV replicon in 5-2 Luc replicon-comprising cells", "experiment": "HCV replicon assay (luciferase; HEPC_REPLICON-LUC)", "type": "cell-based, Hepatitis C virus", "conditions": "Tables 3-12; 50% reduction in luciferase emission, 5-2 Luc replicon cells; read-out: Replicon (IC50)", "text": "as §1, §2, §3", "units": {"IC50": "µM"}, "values": [{"compound": "2,2-dichloro-N-[3′-[3′-(2′-chloro-6′-tbutoxycarbonylphenyl)-5′-isoxazoyl]phenyl]-N-[(5-isopropyl-1,3-dioxolene-2-one4-yl)methylene] acetamide [Cpd. 36]", "IC50": "≤ 10"}, {"compound": "2,2-dichloro-2-(diethoxyphosphonyl)-N-[3-[3-(2,6-dichlorophenyl)-5-isoxazoyl]phenyl] acetamide [compound 405]", "IC50": "≤ 10"}, {"compound": "2′-chloro-2′-(diethoxyphosphonyl)-N-[3-[3-(2,6-dichlorophenyl)-5-isoxazoyl]phenyl] acetamide [Cpd. 1]", "IC50": "> 10"}, {"compound": "2,2-dichloro-2-(dihydroxyphosphonyl)-N-[3-[3-(2,6-dichlorophenyl)-5-isoxazoyl]phenyl] acetamide [Cpd. 407]", "IC50": "> 10"}]}, {"test_system": "HCV NS5A protein in 9-13 replicon cells", "experiment": "Replicon quantitative Western blot assay (HEPC_REPLICON-ICWESTERN)", "type": "cell-based", "conditions": "Hepatitis C virus, read-out: HEPC_REPLICON-ICWESTERN Result Value", "method": "(§4) Alternatively, the inhibitory activity of the metabolically active agents of the prodrugs can be confirmed using a quantitative Western immunoblot assay utilizing antibodies specific for HCV non-structural proteins, such as NS3, NS4A NS5A and NS5B. In one embodiment of this assay, replicon cells are treated with varying concentrations of test prodrug to determine the concentration of the metabolically active agent of the test prodrug that yields a 50% reduction in the amount of a non-structural protein produced as compared to a control sample (IC50). A single non-structural protein may be quantified or multiple non-structural proteins may be quantified. Antibodies suitable for carrying out such immunoblot assays are available commercially (e.g., from BIODESIGN International, Saco, Me.).\n(§5) Certain prodrugs of the invention, which may inhibit HCV translation or replication prior to metablism and/or are metabolized into active agents, were also tested for their ability to inhibit HCV replication using a quantitative Western blot analysis with antibodies specific for the HCV NS5A or other non-structural proteins. Actively dividing 9-13 replicon cells were seeded into 6-well plates at a density of 1×10^5 cells/well in a volume of 2 ml/well and incubated at 37° C. and 5% CO2 for 24 hours. Various concentrations of test prodrugs (in a volume of 10 ul) were added to the wells and the cells incubated for another 48 hours. Protein samples were prepared from the cultured cells, resolved on a SDS-PAGE gel and transferred to a nitrocellulose membrane. The membrane was blocked with 5% non-fat milk in PBS for 1 hour at room temperature. Primary antibody (anti NS5A antibody; BIODESIGN International, Saco, Me.) incubation was performed for 1 hour at room temperature, after which the membrane was washed 3 times (for 15 min per time) with PBST (PBS plus 0.1% Tween 20). Horseradish peroxidase conjugated secondary antibody incubation was performed for 1 hour at room temperature and the membrane was washed 3 times (for 15 min per time) with PBST. The membrane was then soaked in substrate solution (Pierce) and exposed to a film or quantified using an imager. In this assay, the amount of test prodrug that is believed to be transformed into an active agent under the given conditions that yielded a 50% reduction in the amount of NS5A protein translated as compared to a control sample (IC50) was determined.", "units": {"IC50": "µM"}, "values": [{"compound": "CCOP(=O)(OCC)Oc1ccc(CCCN(C(=O)C(Cl)Cl)c2ccnc(-c3cc(-c4c(Cl)cccc4Cl)no3)c2)cc1", "note": "[Cpd. 1038, 4-(3-(2,2-Dichloro-N-(2-(3-(2,6-dichlorophenyl)isoxazol-5-yl)pyridin-4-yl)acetamido)propyl)phenyl Diethyl Phosphate]", "IC50": "1 to 20"}]}, {"test_system": "HCV NS5A protein in 9-13 replicon cells", "experiment": "Replicon quantitative Western blot assay (HEPC_REPLICON-ICWESTERN)", "type": "cell-based", "conditions": "Hepatitis C virus; Table 14; read-out: HEPC_REPLICON-ICWESTERN Result Value", "method": "as §4, §5", "units": {"IC50": "µM"}, "values": [{"compound": "CC(C)(C)OC(=O)c1ccc(CCCN(C(=O)C(Cl)Cl)c2ccnc(-c3cc(-c4c(Cl)cccc4Cl)no3)c2)cc1", "note": "[Cpd. 1040, tert-Butyl 4-(3-(2,2-Dichloro-N-(2-(3-(2,6-dichlorophenyl)isoxazol-5-yl)pyridin-4-yl)acetamido)propyl)benzoate]", "IC50": "1 to 20"}, {"compound": "O=C(CCN(C(=O)C(Cl)Cl)c1ccnc(-c2cc(-c3c(Cl)cccc3Cl)no2)c1)C1CCCN1", "note": "(stereo not shown) [Cpd. 1024, 2,2-Dichloro-N-(2-(3-(2,6-dichlorophenyl)isoxazol-5-yl)pyridin-4-yl)-N-(3-oxo-3-(pyrrolidin-2-yl)propyl)acetamide]", "IC50": "< 1"}, {"compound": "CC(C)(C)OC(=O)N1CCN(c2ccc(CCCN(C(=O)C(Cl)Cl)c3ccnc(-c4cc(-c5c(Cl)cccc5Cl)no4)c3)cc2)CC1", "note": "[Cpd. 1039, tert-Butyl 4-(4-(3-(2,2-Dichloro-N-(2-(3-(2,6-dichlorophenyl)isoxazol-5-yl)pyridin-4yl)acetamido)propyl)phenyl)piperazine-1-carboxylate]", "IC50": "> 20"}, {"compound": "CCCNC(=O)Oc1c(C)cc(CN(C(=O)C(Cl)Cl)c2ccnc(-c3cc(-c4c(Cl)cccc4Cl)no3)c2)cc1C", "note": "[Cpd. 1027, 4-((2,2-Dichloro-N-(2-(3-(2,6-dichlorophenyl)isoxazol-5-yl)pyridin4-yl)acetamido)methyl)-2,6-dimethylphenyl Propylcarbamate]", "IC50": "1 to 20"}, {"compound": "O=C(C(Cl)Cl)N(COCCc1ccccn1)c1ccnc(-c2cc(-c3c(Cl)cccc3Cl)no2)c1", "note": "[Cpd. 1028, 2,2-Dichloro-N-(2-(3-(2,6-dichlorophenyl)isoxazol-5-yl)pyridin-4-yl)-N-((2-(pyridin-2-yl)ethoxy)methyl)acetamide]", "IC50": "> 20"}, {"compound": "CC(C)(C)OC(=O)c1ccc(CN(C(=O)C(Cl)Cl)c2ccnc(-c3cc(-c4c(Cl)cccc4Cl)no3)c2)cc1", "note": "[Cpd. 1021, tert-Butyl 4-((2,2-Dichloro-N-(2-(3-(2,6-dichlorophenyl)isoxazol-5-yl)pyridin-4-yl)acetamido)methyl)benzoate]", "IC50": "1 to 20"}, {"compound": "O=C(C(Cl)Cl)N(CCN1CCOCC1)c1ccnc(-c2cc(-c3c(Cl)cccc3Cl)no2)c1", "note": "[Cpd. 1026, 2,2-Dichloro-N-(2-(3-(2,6-dichlorophenyl)isoxazol-5-yl)pyridin4-yl)-N-(2-morpholinoethyl)acetamide]", "IC50": "> 20"}]}]}
